≈ marks a conversion by molar mass, not a printed value. Calls of active or inactive are those of the source. The rule behind the calls is not given here.

The nature of test [1]: Inhibition of quorum sensing system in Chromobacterium violaceum CV026 assessed as reduction in violacein production incubated for 24 hrs.
A short description of test [2]: Inhibition of quorum sensing system in Chromobacterium violaceum CV026 assessed as reduction in violacein production at 1 mg/ml incubated for 24 hrs relative to control.

Consider `CCCC/C=C/[N+]([O-])=N/[C@H](C)[C@@H](C)O`, for which the IC50 in test [1] is 120 µg/mL (≈ 599 µM).
Regarding `CCCC(O)/C=C/[N+]([O-])=N/C(C)C(C)O` (stereo not given), in test [1], the inhibition entry was “Active”.
Consider `CCCC/C=C/[N+]([O-])=N/[C@H](C)[C@H](O)CC(=O)OC`, for which, in test [2], the inhibition stood at 40%.
Regarding `CCCC/C=C/[N+]([O-])=N/C(C)C(O)C(N)=O` (stereo not given), the IC50 in test [1] is 500 µg/mL (≈ 2180 µM).
The same measure, in the same setting: under `CCCC/C=C/[N+]([O-])=N/[C@H](C)[C@H](C)O` stands 120 µg/mL (≈ 599 µM).

These data come from ChEMBL document CHEMBL5120894, “Isolation, Biosynthetic Investigation, and Biological Evaluation of Maniwamycin G, an Azoxyalkene Compound from Streptomyces sp. TOHO-M025” (J Nat Prod, 2022).
